From ChEMBL document CHEMBL1150936, “Antioxidative bromoindole derivatives from the mid-intestinal gland of the muricid gastropod Drupella fragum” (J Nat Prod, 1998)

Experiment: Antioxidant activity assessed as peroxide value relative to control
Assay type: functional

SMILES | Activity (milliequivalent/kg)
Oc1c(Br)cc2[nH]ccc2c1O | 0.194
Cc1cc(C(C)(C)C)c(O)c(C(C)(C)C)c1 | 0.031
Oc1cc2cc[nH]c2cc1Br | 0.036
Oc1cc(Br)c(O)c2[nH]ccc12 | 0.106
Cc1c(C)c2c(c(C)c1O)CC[C@@](C)(CCC[C@H](C)CCC[C@H](C)CCCC(C)C)O2 | 0.062
